In PubChem BioAssay (NCI):
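Step 1: Grow cells in 96-well plates. Step 2: Expose to compound for 48 hours at 5 concentrations. Step 3: Interpolate endpoints linearly; if unreached, use highest concentration. At the TGI there is no net growth.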

Assays:
Test in all cases: NCI tumour cell line growth inhibition, 48 h
IGROV1 ovarian = test system: IGROV1 ovarian
HCT-15 colon = test system: HCT-15 colon
EKVX NSCLC = test system: EKVX NSCLC
SF-295 CNS = test system: SF-295 CNS
SF-268 CNS = test system: SF-268 CNS
786-0 renal = test system: 786-0 renal
RXF 393 renal = test system: RXF 393 renal
HT29 colon = test system: HT29 colon
KM12 colon = test system: KM12 colon
OVCAR-8 ovarian = test system: OVCAR-8 ovarian
SR leukemia = test system: SR leukemia
T-47D breast = test system: T-47D breast
DU-145 prostate = test system: DU-145 prostate
A549 NSCLC = test system: A549 NSCLC
UACC-257 melanoma = test system: UACC-257 melanoma
MCF7 breast = test system: MCF7 breast
K-562 leukemia = test system: K-562 leukemia
NCI-H23 lung = test system: NCI-H23 lung
UACC-62 melanoma = test system: UACC-62 melanoma
HOP-62 NSCLC = test system: HOP-62 NSCLC
HL-60(TB) leukemia = test system: HL-60(TB) leukemia
SK-MEL-5 melanoma = test system: SK-MEL-5 melanoma
SK-MEL-28 melanoma = test system: SK-MEL-28 melanoma
TK-10 renal = test system: TK-10 renal
SN12C renal = test system: SN12C renal
CCRF-CEM leukemia = test system: CCRF-CEM leukemia
MDA-N = test system: MDA-N
SK-OV-3 ovarian = test system: SK-OV-3 ovarian
MALME-3M melanoma = test system: MALME-3M melanoma
SNB-75 CNS = test system: SNB-75 CNS
MDA-MB-231 breast = test system: MDA-MB-231 breast
COLO 205 colon = test system: COLO 205 colon
CAKI-1 renal = test system: CAKI-1 renal
MOLT-4 leukemia = test system: MOLT-4 leukemia
RPMI-8226 leukemia = test system: RPMI-8226 leukemia
PC-3 prostate = test system: PC-3 prostate
M14 melanoma = test system: M14 melanoma
HCC-2998 colon = test system: HCC-2998 colon
SW-620 colon = test system: SW-620 colon

CC(C)(C)[Si](C)(C)Oc1cc(CO)cc2c1cc(=N)o[n+]2[O-] gave a TGI (IGROV1 ovarian) of over 10 µM, a TGI (HCT-15 colon) of over 10 µM and a TGI (EKVX NSCLC) of over 10 µM. For the same molecule, the TGI (SF-295 CNS) was over 10 µM, the TGI (SF-268 CNS) was over 10 µM and the TGI (786-0 renal) was over 10 µM. The TGI (RXF 393 renal) was over 10 µM, the TGI (HT29 colon) was over 10 µM and the TGI (KM12 colon) was over 10 µM. The TGI (OVCAR-8 ovarian) was over 10 µM, the TGI (SR leukemia) was 7.58 µM and the TGI (T-47D breast) was over 10 µM. For the same molecule, the TGI (DU-145 prostate) was over 10 µM, the TGI (A549 NSCLC) was over 10 µM and the TGI (UACC-257 melanoma) was over 10 µM. The TGI (MCF7 breast) was 9.25 µM, the TGI (K-562 leukemia) was over 10 µM and the TGI (NCI-H23 lung) was over 10 µM. The TGI (UACC-62 melanoma) was over 10 µM, the TGI (HOP-62 NSCLC) was over 10 µM and the TGI (HL-60(TB) leukemia) was over 10 µM. It also gave a TGI (SK-MEL-5 melanoma) of over 10 µM, a TGI (SK-MEL-28 melanoma) of over 10 µM and a TGI (TK-10 renal) of over 10 µM. The TGI (SN12C renal) was over 10 µM, the TGI (CCRF-CEM leukemia) was over 10 µM and the TGI (MDA-N) was over 10 µM. It also gave a TGI (SK-OV-3 ovarian) of over 10 µM, a TGI (MALME-3M melanoma) of over 10 µM and a TGI (SNB-75 CNS) of over 10 µM. It also gave a TGI (MDA-MB-231 breast) of over 10 µM, a TGI (COLO 205 colon) of over 10 µM and a TGI (CAKI-1 renal) of over 10 µM. For the same molecule, the TGI (MOLT-4 leukemia) was 9.28 µM, the TGI (RPMI-8226 leukemia) was over 10 µM and the TGI (PC-3 prostate) was over 10 µM. For the same molecule, the TGI (M14 melanoma) was over 10 µM, the TGI (HCC-2998 colon) was over 10 µM and the TGI (SW-620 colon) was over 10 µM.
